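The compound was tested at five concentrations on cells cultured in 96-well plates, with a 48-hour exposure period. GI50 is the concentration that inhibits growth by half.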 The source made the active and inactive calls. Cut-off read from the data, not from the text of the source: active = GI50 up to about 1.1 µM and inactive = higher.
How the values were obtained:
Experiment in all cases: inhibition of tumour cell growth, NCI panel, 48 h
OVCAR-8 = test system: OVCAR-8
EKVX = test system: EKVX
SF-295 = test system: SF-295
HCC 2998 = test system: HCC 2998
TK-10 = test system: TK-10
RPMI-8226 = test system: RPMI-8226
M14 = test system: M14
OVCAR-5 = test system: OVCAR-5
ACHN = test system: ACHN
PC-3 = test system: PC-3
UO-31 = test system: UO-31
HCT-116 = test system: HCT-116
HOP-62 = test system: HOP-62
UACC-62 = test system: UACC-62
Hs-578T = test system: Hs-578T
MCF7 = test system: MCF7
SN12C = test system: SN12C
SF-268 = test system: SF-268
A549 = test system: A549
HT-29 = test system: HT-29
K562 = test system: K562
CCRF-CEM = test system: CCRF-CEM
SK-MEL-5 = test system: SK-MEL-5
HOP-92 = test system: HOP-92
SW-620 = test system: SW-620
786-0 = test system: 786-0
NCI/ADR-RES = test system: NCI/ADR-RES
CAKI-1 = test system: CAKI-1
NCI-H460 = test system: NCI-H460
RXF 393 = test system: RXF 393
HL-60 = test system: HL-60
MDA-N = test system: MDA-N
SF-539 = test system: SF-539
MDA-MB-231 = test system: MDA-MB-231
SK-MEL-2 = test system: SK-MEL-2
UACC-257 = test system: UACC-257
NCI-H226 = test system: NCI-H226
MDA-MB-435 = test system: MDA-MB-435
Malme-3M = test system: Malme-3M
SK-OV-3 = test system: SK-OV-3
SR = test system: SR
IGROV-1 = test system: IGROV-1
SNB-19 = test system: SNB-19
HCT-15 = test system: HCT-15
LOX IMVI = test system: LOX IMVI
DU-145 = test system: DU-145
A498 = test system: A498
BT-549 = test system: BT-549
COLO 205 = test system: COLO 205
MOLT-4 = test system: MOLT-4
OVCAR-3 = test system: OVCAR-3
U-251 = test system: U-251
SK-MEL-28 = test system: SK-MEL-28
NCI-H23 = test system: NCI-H23
SNB-75 = test system: SNB-75
NCI-H522 = test system: NCI-H522
OVCAR-4 = test system: OVCAR-4
KM12 = test system: KM12

Q: What does the source list for Cc1cccc(C)c1N1C(=O)C2c3[nH]c4ccccc4c3C3CCC(C(C)(C)C)CC3C2C1=O (configuration not stated)?
A: GI50 (OVCAR-8): 17 µM (inactive); GI50 (EKVX): 7.16 µM (inactive); GI50 (SF-295): 17.3 µM (inactive); GI50 (HCC 2998): 3.85 µM (inactive); GI50 (TK-10): 17.6 µM (inactive); GI50 (RPMI-8226): 19.3 µM (inactive); GI50 (M14): 13.6 µM (inactive); GI50 (OVCAR-5): 24.6 µM (inactive); GI50 (ACHN): 12.4 µM (inactive); GI50 (PC-3): 6.44 µM (inactive); GI50 (UO-31): 10.8 µM (inactive); GI50 (HCT-116): 9.25 µM (inactive); GI50 (HOP-62): 2.43 µM (inactive); GI50 (UACC-62): 16.1 µM (inactive); GI50 (Hs-578T): 16.6 µM (inactive); GI50 (MCF7): 3.47 µM (inactive); GI50 (SN12C): 10.2 µM (inactive); GI50 (SF-268): 14.4 µM (inactive); GI50 (A549): 12.3 µM (inactive); GI50 (HT-29): 10.3 µM (inactive); GI50 (K562): 9.06 µM (inactive); GI50 (CCRF-CEM): 12.6 µM (inactive); GI50 (SK-MEL-5): 14.3 µM (inactive); GI50 (HOP-92): 6.32 µM (inactive); GI50 (SW-620): 5.74 µM (inactive); GI50 (786-0): 8.67 µM (inactive); GI50 (NCI/ADR-RES): 13.8 µM (inactive); GI50 (CAKI-1): 12.3 µM (inactive); GI50 (NCI-H460): 5.73 µM (inactive); GI50 (RXF 393): 8.97 µM (inactive); GI50 (HL-60): 12.8 µM (inactive); GI50 (MDA-N): 11.5 µM (inactive); GI50 (SF-539): 17.5 µM (inactive); GI50 (MDA-MB-231): 11.9 µM (inactive); GI50 (SK-MEL-2): 15.6 µM (inactive); GI50 (UACC-257): 16.5 µM (inactive); GI50 (NCI-H226): 18.4 µM (inactive); GI50 (MDA-MB-435): 11.4 µM (inactive); GI50 (Malme-3M): 14.4 µM (inactive); GI50 (SK-OV-3): 54.5 µM (inactive); GI50 (SR): 9.91 µM (inactive); GI50 (IGROV-1): 15 µM (inactive); GI50 (SNB-19): 62.4 µM (inactive); GI50 (HCT-15): 11.4 µM; GI50 (LOX IMVI): 10.1 µM (inactive); GI50 (DU-145): 8.45 µM (inactive); GI50 (A498): 15.7 µM (inactive); GI50 (BT-549): 20 µM (inactive); GI50 (COLO 205): 10.9 µM (inactive); GI50 (MOLT-4): 24.6 µM (inactive); GI50 (OVCAR-3): 13.7 µM (inactive); GI50 (U-251): 16.8 µM (inactive); GI50 (SK-MEL-28): 19.9 µM (inactive); GI50 (NCI-H23): 14.8 µM (inactive)

Q: What does the source list for C/C(=N\c1ccc(Cl)c(Cl)c1)c1ccncc1?
A: GI50 (OVCAR-8): > 100 µM (inactive); GI50 (SF-295): > 100 µM (inactive); GI50 (SNB-75): > 100 µM (inactive); GI50 (HCC 2998): > 10 µM (inactive); GI50 (TK-10): > 100 µM (inactive); GI50 (M14): > 100 µM (inactive); GI50 (PC-3): > 100 µM (inactive); GI50 (HCT-116): > 100 µM (inactive); GI50 (HOP-62): > 100 µM (inactive); GI50 (UACC-62): > 100 µM (inactive); GI50 (Hs-578T): > 100 µM (inactive); GI50 (NCI-H522): > 100 µM (inactive); GI50 (OVCAR-4): > 100 µM (inactive); GI50 (SN12C): > 100 µM (inactive); GI50 (KM12): > 100 µM (inactive); GI50 (SF-268): > 100 µM (inactive); GI50 (HT-29): > 100 µM (inactive); GI50 (K562): > 100 µM (inactive); GI50 (CCRF-CEM): > 100 µM (inactive); GI50 (HOP-92): > 100 µM (inactive); GI50 (SW-620): > 100 µM (inactive); GI50 (786-0): > 100 µM (inactive); GI50 (NCI/ADR-RES): > 100 µM (inactive); GI50 (NCI-H460): > 100 µM (inactive); GI50 (RXF 393): > 100 µM (inactive); GI50 (MDA-N): > 100 µM (inactive); GI50 (MDA-MB-231): > 100 µM (inactive); GI50 (NCI-H226): > 100 µM (inactive); GI50 (SK-OV-3): > 100 µM (inactive); GI50 (SNB-19): > 100 µM (inactive); GI50 (LOX IMVI): > 100 µM (inactive); GI50 (BT-549): > 100 µM (inactive); GI50 (COLO 205): > 100 µM (inactive); GI50 (MOLT-4): > 100 µM (inactive); GI50 (OVCAR-3): > 100 µM (inactive); GI50 (U-251): > 100 µM (inactive); GI50 (SK-MEL-28): > 100 µM (inactive); GI50 (NCI-H23): > 100 µM (inactive)

— ChEMBL document CHEMBL1201862, “PubChem BioAssay data set” (2004)
